Square brackets hold non-standard residues; d marks the D form. Peptide text beside a SMILES is read from it. * marks the point of attachment. ξ: configuration not given here. X1 = COC1=CC(=O)N(C(=O)C(O*)C(C)C)C1Cc1ccccc1; ξNMe2Val = CC(C)C(C(=O)*)N(C)C; NMeV = CN[CH](C(=O)O)C(C)C

In this test the test system is sea urchin embryo, cleavage alteration, microscopy. Kind of test: sea urchin embryo cleavage alteration, tubulin destabilizer project, whole organism, microscopy (AID 351).
Consider `COc1ccc(-c2nc3sc4c(c3c(=O)[nH]2)CCCC4)c2ccccc12`, for which the threshold concentration was 50 nM.

For `COC(=O)Nc1nc2ccc(C(=O)c3cccs3)cc2[nH]1`, the threshold concentration is 5 nM. To `Cc1nc2sccn2c1-c1csc(Nc2ccccc2Cl)n1` belongs 200 nM; to `c1ccc(-c2nnc(Nc3ccc4c(c3)OCCO4)o2)c(NCc2ccncc2)c1`, 0.5 nM. On to `Nc1c(C(=O)c2ccccc2)sc2nc3c(cc12)CCCC3`, for which the threshold concentration was 20 nM. Regarding `COc1ccc(NC(=O)C(=O)c2c[nH]c3ccccc23)cc1`, the threshold concentration was 1 nM. Then `COc1cc(N)c(-c2nnc(Nc3ccc4c(c3)OCO4)o2)c(OC)c1`, with 50 nM; and `CCOc1ccc(Nc2nc(-c3c(C)nc4sccn34)cs2)cc1`, with 50 nM; and `COc1cccc(NC(=O)C(=O)c2cn(Cc3ccc(Cl)cc3)c3ccccc23)c1`, with 4000 nM. For `c1cncc(CNc2ccccc2-c2nnc(Nc3ccc4c(c3)OCO4)o2)c1`, the threshold concentration was 1 nM. Turning to `Nc1cc2c(cc1-c1nnc(Nc3ccc4c(c3)OCO4)o1)OCO2`, the threshold concentration was 50 nM. For `COc1cc2c(cc1O)CCC1C2CCC2(C)C(O)CCC12` (centres undefined), the threshold concentration is 200 nM. `O=C(Nc1ccc2c(c1)OCCO2)C(=O)c1cn(Cc2ccc(Cl)cc2)c2ccccc12`: the threshold concentration is 100 nM.

On to `Cc1nc2sccn2c1-c1csc(Nc2ccc(Cl)cc2)n1`, for which the threshold concentration is 100 nM. Consider `COC1=CC(=O)N(C(=O)C(OC(=O)C2CCCN2C(=O)C2CCCN2C(=O)C(C(C)C)N(C)C(=O)C(NC(=O)C(C(C)C)N(C)C)C(C)C)C(C)C)C1Cc1ccccc1` (centres undefined) (ξNMe2Val-V[NMeV]PP-X1; configuration not given here), for which the threshold concentration was 5 nM. `COc1ccc(-c2nnc(Nc3ccc4c(c3)OCCO4)o2)c(N)c1`: the threshold concentration was 25 nM.

Take `COC(=O)c1[nH]c2ccccc2c1NCc1ccncc1`: the threshold concentration was 500 nM.

As to `CCOc1ccc(Nc2nc(-c3c(C)nc4ncccn34)cs2)cc1`, the threshold concentration is 5 nM.

Turning to `CCOc1ccc(Nc2nc(-c3c(C)nc4cc(C)ccn34)cs2)cc1`, the threshold concentration was 200 nM. Regarding `c1ccc(-c2nnc(Nc3ccc4c(c3)OCO4)o2)c(NCc2ccncc2)c1`, the threshold concentration was 0.5 nM.

Consider `c1cncc(CNc2ccccc2-c2nnc(Nc3ccc4c(c3)OCCO4)o2)c1`, for which the threshold concentration was 1 nM. On to `COc1ccc(C2=N[C@H](c3ccc(OC)cc3)[C@H](c3ccc(OC)cc3)N2)cc1`, for which the threshold concentration is 500 nM.

With `Cc1nc2ncccn2c1-c1csc(Nc2ccc(Cl)cc2)n1`, the threshold concentration is 100 nM. Turning to `CCC1=CCN2CCC34c5cc(C6(C(=O)OC)CC7CN(CCc8c6[nH]c6ccccc86)CC(O)(CC)C7)c(OC)cc5N(C)C3C(O)(C(=O)OC)C(OC(C)=O)C1C24` (centres undefined), the threshold concentration was 200 nM. Take `O=C(Nc1ccc2c(c1)OCCO2)C(=O)c1c[nH]c2ccccc12`: the threshold concentration is 2 nM. Then `Cc1cc(NC(=O)C(=O)c2cn(Cc3ccc(Cl)cc3)c3ccccc23)no1`, with 10 nM; and `c1ccc(-c2nnc(Nc3ccc4c(c3)OCCO4)o2)c(NCc2ccns2)c1`, with 2000 nM.

Take `COc1ccc(NC(=O)C(=O)c2cn(Cc3ccc(Cl)cc3)c3ccccc23)cc1`: the threshold concentration is 50 nM. Then `O=C1c2cccc(O)c2C(=O)c2c(O)cc(CO)cc21`, with 20000 nM.

(Values after PubChem BioAssay AID351 (ChemBlock, 2006).)
